Measurements as given in patent US7776791B2, “N-heterocyclyl phenyl-substituted cyclic ketoenols” (Bayer CropScience AG, priority 2003, dated 2010).

Experiments:
Type in all cases: in vivo
[1] = tested on: caterpillars of the army worm (Spodoptera frugiperda); test: Spodoptera frugiperda test; details: 100 ppm active compound, leaf dip
Experimental: Solvent: 7 parts by weight of dimethylformamide
Emulsifier: 2 parts by weight of alkylaryl polyglycol ether
To produce a suitable preparation of active compound, 1 part by weight of active compound is mixed with the stated amounts of solvent and emulsifier, and the concentrate is diluted with emulsifier-containing water to the desired concentration.
Cabbage leaves (Brassica oleracea) are treated by being dipped into the preparation of active compound of the desired concentration and are populated with caterpillars of the army worm (Spodoptera frugiperda) while the leaves are still moist.
After the desired period of time, the kill in % is determined. 100% means that all caterpillars have been killed; 0% means that none of the caterpillars have been killed.

[2] = tested on: monocotyledonous and dicotyledonous weed and crop plants; test: Herbicidal post-emergence action (K); details: greenhouse, 320 g of a.i./ha, EC formulation
Experimental: K. Herbicidal Post-Emergence Action
Seeds of monocotyledonous and dicotyledonous weed and crop plants are placed into sandy loam in wood fibre pots, covered with soil and cultivated in a greenhouse under good growth conditions. 2-3 weeks after sowing, the test plants are treated at the one-leaf stage. The test compounds, formulated as wettable powders (WP) or emulsifiable concentrates (EC), are, in various dosages with a water application rate of 600 l/ha (converted), with 0.2% of wetting agent added, sprayed onto the green parts of the plants. After the test plants were kept in a greenhouse under optimum growth conditions for about 3 weeks, the effect of the preparations is rated visually in comparison to untreated controls (herbicidal effect in percent (%): 100% effect=the plants have died, 0% effect=like controlled plants).

[3] = tested on: larvae of the mustard beetle (Phaedon cochleariae); test: Phaedon larvae test; details: 500 ppm active compound, leaf dip
Experimental: Solvent: 7 parts by weight of dimethylformamide Emulsifier: 2 parts by weight of alkylaryl polyglycol ether To produce a suitable preparation of active compound, 1 part by weight of active compound is mixed with the stated amounts of solvent and emulsifier, and the concentrate is diluted with emulsifier-containing water to the desired concentration. Cabbage leaves (Brassica oleracea) are treated by being dipped into the preparation of active compound of the desired concentration and are populated with larvae of the mustard beetle (Phaedon cochleariae) while the leaves are still moist.

| Structure (SMILES) | Kill rate in % after 7 d [1] [%] | herbicidal effect in percent, Echinochloa ([2]; Echinochloa) [%] | herbicidal effect in percent, Setaria ([2]; Setaria) [%] | herbicidal effect in percent, Sorghum ([2]; Sorghum) [%] | herbicidal effect in percent, Sugar beet ([2]; Sugar beet) [%] | Kill rate in % after 7 d [3] [%] |
| --- | --- | --- | --- | --- | --- | --- |
| COC1CCC2(CC1)NC(=O)C(c1cc(-n3cc(Cl)cn3)ccc1C)=C2O (stereo not shown) [Ex. I-1-a-1] | 85 | 100 | 100 | 90 | 0 | – |
| Cc1ccc(-n2cc(Cl)cn2)cc1C1=C(O)C2(CCCCC2)CC1=O [Ex. I-6-a-1] | – | – | – | – | – | 90 |
| Cc1ccc(-n2cc(Cl)cn2)cc1C1=C(O)CC(C)(C)CC1=O [Ex. I-7-a-1] | – | – | – | – | – | 100 |
